The record followed here is patent US20230286958A1, “PLASMA KALLIKREIN INHIBITORS” (Merck Sharp & Dohme LLC, priority 2020, published 2023).

The structures appear in SMILES notation.

In experiment [1] the target is Human plasma kallikrein (Homo sapiens (Human), UniProt P03952). Description: Kallikrein Assay (fluorogenic substrate Acetyl-K-P-R-AFC). The class given is biochemical. As to conditions: Plasma Kallikrein (PKal). The procedure, abridged: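 Ki is derived from IC50 with the Cheng-Prusoff equation, and IC50 from the inflection point of a four-parameter logistic curve. The rate of AFC release is read with 0.5 nM purified enzyme and […] substrate at room temperature or 37 °C.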
Chain of Human plasma kallikrein (P03952 391-638): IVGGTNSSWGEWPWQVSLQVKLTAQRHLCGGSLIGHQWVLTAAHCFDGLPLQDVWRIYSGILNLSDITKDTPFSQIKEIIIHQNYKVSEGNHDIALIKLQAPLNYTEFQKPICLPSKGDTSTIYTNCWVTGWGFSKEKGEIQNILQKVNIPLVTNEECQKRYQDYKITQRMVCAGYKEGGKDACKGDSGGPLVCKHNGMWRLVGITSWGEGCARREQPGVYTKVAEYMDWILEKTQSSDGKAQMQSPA
Chain of Human plasma kallikrein (P03952 20-390 partner): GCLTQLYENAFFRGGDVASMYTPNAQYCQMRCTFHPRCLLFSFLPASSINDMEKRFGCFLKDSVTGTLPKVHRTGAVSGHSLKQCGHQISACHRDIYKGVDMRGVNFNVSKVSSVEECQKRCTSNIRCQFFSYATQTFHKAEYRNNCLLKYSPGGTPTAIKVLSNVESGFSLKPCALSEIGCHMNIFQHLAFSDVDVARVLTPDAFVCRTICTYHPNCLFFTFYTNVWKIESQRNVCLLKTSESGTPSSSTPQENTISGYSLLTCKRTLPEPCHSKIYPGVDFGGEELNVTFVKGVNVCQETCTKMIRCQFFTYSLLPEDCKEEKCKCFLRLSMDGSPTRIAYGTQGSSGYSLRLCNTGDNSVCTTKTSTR

The target in experiment [2] is human Factor XIa (Homo sapiens (Human), UniProt P03951). Description: Factor XIa Assay (fluorogenic substrate GPR-AFC). The class given is biochemical. The conditions noted are these: Factor XIa (FXIa).
Chain of human Factor XIa (P03951 388-625 limits assumed): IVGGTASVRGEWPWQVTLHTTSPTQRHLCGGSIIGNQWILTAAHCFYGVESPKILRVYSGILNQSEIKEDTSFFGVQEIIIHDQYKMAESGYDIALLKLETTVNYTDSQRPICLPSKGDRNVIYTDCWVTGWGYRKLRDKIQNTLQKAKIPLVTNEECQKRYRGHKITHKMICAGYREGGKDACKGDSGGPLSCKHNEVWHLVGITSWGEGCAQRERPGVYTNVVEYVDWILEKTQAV
Chain of human Factor XIa (P03951 19-387 partner limits assumed): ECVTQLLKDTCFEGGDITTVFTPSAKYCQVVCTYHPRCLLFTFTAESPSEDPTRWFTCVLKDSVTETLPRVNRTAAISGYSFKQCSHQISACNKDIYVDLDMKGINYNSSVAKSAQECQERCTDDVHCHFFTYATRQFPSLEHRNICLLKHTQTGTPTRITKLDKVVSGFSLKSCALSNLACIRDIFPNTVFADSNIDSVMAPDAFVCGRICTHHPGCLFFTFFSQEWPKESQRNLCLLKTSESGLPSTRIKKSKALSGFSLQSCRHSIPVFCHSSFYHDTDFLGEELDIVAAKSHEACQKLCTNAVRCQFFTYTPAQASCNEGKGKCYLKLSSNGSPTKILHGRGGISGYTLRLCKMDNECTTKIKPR

Usually IC50 stands for the concentration that gives 50% inhibition. A higher IC50 goes with a need for much substance. With `CC(c1cnc(N2CC3CC3C2=O)nc1)n1cc(NC(=O)c2cncc(-c3c(C(F)(F)F)ccc(Cl)c3F)n2)cn1` (single isomer, unassigned) [Example 70, 6-(3-Chloro-2-fluoro-6-(trifluoromethyl)phenyl)-N-(1-((S orR)-1-(2-((1R,5S or 1S,5R)-2-oxo-3-azabicyclo[3.1.0]hexan-3-yl)pyrimidin-5-yl)ethyl)-1H-pyrazol-4-yl)pyrazine-2-carboxamide], the IC50 was found to be 18.6 nM in experiment [1] and 7680 nM in experiment [2].

As for `Cc1ncc(-c2c(C(F)F)ccc(Cl)c2F)nc1C(=O)Nc1cnn(Cc2nnc(N3C[C@H]4C[C@H]4C3=O)c(C)c2C)c1` [Example 88, 6-(3-Chloro-6-(difluoromethyl)-2-fluorophenyl)-N-(1-((4,5-dimethyl-6-((1R,5S)-2-oxo-3-azabicyclo[3.1.0]hexan-3-yl)pyridazin-3-yl)methyl)-1H-pyrazol-4-yl)-3-methylpyrazine-2-carboxamide], the figures for the IC50 in experiment [1] and in experiment [2] were 0.7 nM and 127 nM, respectively.

As for `O=C(Nc1cnn(Cc2cnc(N3C[C@H]4C[C@H]4C3=O)c(Cl)c2)c1)c1cncc(-c2c(C(F)F)ccc(Cl)c2F)n1` [Example 8, N-(1-((5-Chloro-6-((1R,5S)-2-oxo-3-azabicyclo[3.1.0]hexan-3-yl)pyridin-3-yl)methyl)-1H-pyrazol-4-yl)-6-(3-chloro-6-(difluoromethyl)-2-fluorophenyl)pyrazine-2-carboxamide], the values for the IC50 in experiment [1] and in experiment [2] were 11.9 nM and above 10000 nM, respectively.

With `Cc1ncc(-c2c(C(F)F)ccc(Cl)c2F)nc1C(=O)Nc1cnn(Cc2ncc(N3C[C@H]4C[C@H]4C3=O)cc2F)c1` [Example 138, 6-(3-Chloro-6-(difluoromethyl)-2-fluorophenyl)-N-(1-((3-fluoro-5-((1R,5S)-2-oxo-3-azabicyclo[3.1.0]hexan-3-yl)pyridin-2-yl)methyl)-1H-pyrazol-4-yl)-3-methylpyrazine-2-carboxamide], the IC50 in experiment [1] is 47 nM; in experiment [2] it was above 10000 nM.

On to `Cc1nc(N2C[C@H]3C[C@H]3C2=O)ncc1Cn1ncc(NC(=O)c2nc(-c3c(C(F)F)ccc(Cl)c3F)cnc2C)n1` [Example 184, 6-(3-Chloro-6-(difluoromethyl)-2-fluorophenyl)-3-methyl-N-(2-((4-methyl-2-((1R,5S)-2-oxo-3-azabicyclo[3.1.0]hexan-3-yl)pyrimidin-5-yl)methyl)-2H-1,2,3-triazol-4-yl)pyrazine-2-carboxamide], for which the IC50 in experiment [1] amounted to 8.1 nM; in experiment [2], 7730 nM.

Regarding `Cc1nc(N2C[C@H]3C[C@H]3C2=O)ncc1C(C)n1cc(NC(=O)c2nc(-c3c(C(F)F)ccc(Cl)c3F)cnc2C)cn1` (single isomer, unassigned) [Example 43], the results for the IC50 in experiment [1] and in experiment [2] were 73.4 nM and 4510 nM, respectively.

For the compound `Cc1nc(C(C)n2cc(NC(=O)c3nc(-c4c(C(F)F)ccc(Cl)c4F)cnc3C)cn2)ccc1N1C[C@H]2C[C@H]2C1=O` (single isomer, unassigned) [Example 59, 6-(3-Chloro-6-(difluoromethyl)-2-fluorophenyl)-3-methyl-N-(1-((R or S)-1-(6-methyl-5-((1R,5S)-2-oxo-3-azabicyclo[3.1.0]hexan-3-yl)pyridin-2-yl)ethyl)-1H-pyrazol-4-yl)pyrazine-2-carboxamide], the values for the IC50 in experiment [1] and in experiment [2] were 3.2 nM and above 10000 nM, respectively.

In the case of `COc1cc(C(C)n2cc(NC(=O)c3nc(-c4c(C(F)F)ccc(Cl)c4F)cnc3C)cn2)cnc1N1C[C@H]2C[C@H]2C1=O` (single isomer, unassigned) [Example 219, 6-(3-Chloro-6-(difluoromethyl)-2-fluorophenyl)-N-(1-((R or S)-1-(5-methoxy-6-((1R,5S)-2-oxo-3-azabicyclo[3.1.0]hexan-3-yl)pyridin-3-yl)ethyl)-1H-pyrazol-4-yl)-3-methylpyrazine-2-carboxamide], the 50% inhibitory concentration (IC50) in experiment [1] came to 0.3 nM; in experiment [2], 549 nM.

On to `CCc1ncc(-c2c(C(F)F)ccc(Cl)c2F)nc1C(=O)Nc1cnn(Cc2cc(C)c(N3C[C@H]4C[C@H]4C3=O)nn2)c1` [Example 233, 6-(3-Chloro-6-(difluoromethyl)-2-fluorophenyl)-3-ethyl-N-(1-((5-methyl-6-((1R,5S)-2-oxo-3-azabicyclo[3.1.0]hexan-3-yl)pyridazin-3-yl)methyl)-1H-pyrazol-4-yl)pyrazine-2-carboxamide], for which the concentration for half-maximal inhibition (IC50) was determined as 19.7 nM in experiment [1] and 1200 nM in experiment [2].

`Cc1ncc(-c2c(C(F)F)ccc(Cl)c2F)nc1C(=O)Nc1cnn(C(CO)c2ccc(N3CC4CC4C3=O)nc2)c1` (single isomer, unassigned) [Example 163, 6-(3-Chloro-6-(difluoromethyl)-2-fluorophenyl)-N-(1-((S or R)-2-hydroxy-1-(6-((1S,5R or 1R,5S)-2-oxo-3-azabicyclo[3.1.0]hexan-3-yl)pyridin-3-yl)ethyl)-1H-pyrazol-4-yl)-3-methylpyrazine-2-carboxamide]: the IC50 was 9.2 nM in experiment [1] and above 10000 nM in experiment [2].

As for `Cc1ncc(-c2c(C#N)ccc(Cl)c2F)nc1C(=O)Nc1cnn(C(C)c2cnc(N3C[C@H]4C[C@H]4C3=O)c(F)c2C)c1` (single isomer, unassigned) [Example 135, 6-(3-Chloro-6-cyano-2-fluorophenyl)-N-(1-((S or R)-1-(5-fluoro-4-methyl-6-((1R,5S)-2-oxo-3-azabicyclo[3.1.0]hexan-3-yl)pyridin-3-yl)ethyl)-1H-pyrazol-4-yl)-3-methylpyrazine-2-carboxamide], the IC50 came out at 5.4 nM in experiment [1] and 4880 nM in experiment [2].

Turning to `CCc1ncc(-c2c(C(F)F)ccc(Cl)c2F)nc1C(=O)Nc1cnn(C(C)c2cc(C)c(N3C[C@H]4C[C@H]4C3=O)nn2)c1` (single isomer, unassigned) [Example 239, 6-(3-Chloro-6-(difluoromethyl)-2-fluorophenyl)-3-ethyl-N-(1-((S or R)-1-(5-methyl-6-((1R,5S)-2-oxo-3-azabicyclo[3.1.0]hexan-3-yl)pyridazin-3-yl)ethyl)-1H-pyrazol-4-yl)pyrazine-2-carboxamide], the IC50 was 1.8 nM in experiment [1] and 1230 nM in experiment [2].

With `Cc1cc(Cn2cc(NC(=O)c3nc(-c4c(C(F)F)ccc(Cl)c4F)cnc3C(C)O)cn2)nnc1N1C[C@H]2C[C@H]2C1=O` (single isomer, unassigned) [Example 209], the IC50 stood at 3.8 nM in experiment [1] and 167 nM in experiment [2].

Regarding `C[C@@H](c1cnc(N2C[C@H]3C[C@H]3C2=O)nc1)n1cc(NC(=O)c2nc(-c3c(C(F)F)ccc(Cl)c3F)cnc2CC(C)(C)O)cn1` [Example 180], the IC50 is 7.7 nM in experiment [1] and 4950 nM in experiment [2].

Consider `Cc1cc(C(C)n2cc(NC(=O)c3nc(-c4c(C(F)F)ccc(Cl)c4F)cnc3C(C)O)cn2)cnc1N1C[C@H]2C[C@H]2C1=O` (single isomer, unassigned) [Example 212, 6-(3-Chloro-6-(difluoromethyl)-2-fluorophenyl)-3-((S or R)-1-hydroxyethyl)-N-(1-((R or S)-1-(5-methyl-6-((1R,5S)-2-oxo-3-azabicyclo[3.1.0]hexan-3-yl)pyridin-3-yl)ethyl)-1H-pyrazol-4-yl)pyrazine-2-carboxamide], for which the values for the IC50 in experiment [1] and in experiment [2] were 1 nM and 354 nM, respectively.

With `Cc1nc(C2(n3cc(NC(=O)c4nc(-c5c(C(F)F)ccc(Cl)c5F)cnc4CO)cn3)CC2)cnc1N1C[C@H]2C[C@H]2C1=O` [Example 223, 6-(3-Chloro-6-(difluoromethyl)-2-fluorophenyl)-3-(hydroxymethyl)-N-(1-(1-(6-methyl-5-((1R,5S)-2-oxo-3-azabicyclo[3.1.0]hexan-3-yl)pyrazin-2-yl)cyclopropyl)-1H-pyrazol-4-yl)pyrazine-2-carboxamide], the IC50 in experiment [1] turned out to be 1 nM; in experiment [2], 1840 nM.

On to `Cc1c(C(C)n2cc(NC(=O)c3cncc(-c4c(C(F)F)ccc(Cl)c4F)n3)cn2)cnc(N2C[C@H]3C[C@H]3C2=O)c1F` (stereo partly drawn) [Example 45, 6-(3-Chloro-6-(difluoromethyl)-2-fluorophenyl)-N (1-(1-(5-fluoro-4-methyl-6-((1R,5S)-2-oxo-3-azabicyclo[3.1.0]hexan-3-yl)pyridin-3-yl)ethyl)-1H-pyrazol-4-yl)pyrazine-2-carboxamide], for which the IC50 in experiment [1] stood at 6.1 nM; in experiment [2] it was 4670 nM.

Turning to `Cc1cc([C@H](C)n2cc(NC(=O)c3cncc(-c4c(C(F)F)ccc(Cl)c4F)n3)cn2)nnc1N1C[C@H]2C[C@H]2C1=O` [Example 37, 6-(3-Chloro-6-(difluoromethyl)-2-fluorophenyl)-N-(1-((S)-1-(5-methyl-6-((1R,5S)-2-oxo-3-azabicyclo[3.1.0]hexan-3-yl)pyridazin-3-yl)ethyl)-1H-pyrazol-4-yl)pyrazine-2-carboxamide], the IC50 in experiment [1] turned out to be 1.2 nM; in experiment [2], 1270 nM.

In the case of `Cc1cc(C(C)n2cc(NC(=O)c3nc(-c4c(C(F)F)ccc(Cl)c4F)cnc3C(C)O)cn2)cnc1N1C[C@H]2C[C@H]2C1=O` (single isomer, unassigned) [Example 213, 6-(3-Chloro-6-(difluoromethyl)-2-fluorophenyl)-3-((Ror S)-1-hydroxyethyl)-N-(1-((R or S)-1-(5-methyl-6-((1R,5S)-2-oxo-3-azabicyclo[3.1.0]hexan-3-yl)pyridin-3-yl)ethyl)-1H-pyrazol-4-yl)pyrazine-2-carboxamide], the values for the 50% inhibitory concentration (IC50) in experiment [1] and in experiment [2] were 0.9 nM and 2030 nM, respectively.

Regarding `Cc1ncc(-c2c(C(F)F)ccc(Cl)c2F)nc1C(=O)Nc1cnn(C(C)c2cnc(N3C[C@H]4C[C@H]4C3=O)c(F)c2C)c1` (single isomer, unassigned) [Example 128, 6-(3-Chloro-6-(difluoromethyl)-2-fluorophenyl)-N-(1-((R or S)-1-(5-fluoro-4-methyl-6-((1R,5S)-2-oxo-3-azabicyclo[3.1.0]hexan-3-yl)pyridin-3-yl)ethyl)-1H-pyrazol-4-yl)-3-methylpyrazine-2-carboxamide], the values for the IC50 in experiment [1] and in experiment [2] were 7.1 nM and 5270 nM, respectively.
